Results taken from patent publication US5811241A, “Method for preparing and identifying N-substitued 1,4-piperazines and N-substituted 1,4-piperazinediones” (Cortech, Inc., priority 1995, dated 1998).

Target: T1, human BK2 receptor (Homo sapiens, UniProt P30411)
T1 construct: expressed in transfected cells; host or cells: CHO-K1 (ATCC)
T1 sequence (P30411 1-391): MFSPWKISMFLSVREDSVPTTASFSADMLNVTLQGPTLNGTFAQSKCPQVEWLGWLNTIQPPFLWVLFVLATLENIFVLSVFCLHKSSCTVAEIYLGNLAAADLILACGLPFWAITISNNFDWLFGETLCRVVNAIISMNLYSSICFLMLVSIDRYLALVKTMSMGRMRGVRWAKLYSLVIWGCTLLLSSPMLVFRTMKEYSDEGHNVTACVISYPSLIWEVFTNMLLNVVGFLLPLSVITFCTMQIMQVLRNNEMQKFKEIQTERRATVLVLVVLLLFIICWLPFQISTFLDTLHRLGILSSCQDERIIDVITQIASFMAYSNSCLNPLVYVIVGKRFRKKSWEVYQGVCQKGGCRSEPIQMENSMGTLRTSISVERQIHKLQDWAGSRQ
Assay: Bradykinin 2 human receptor clone binding assay (inhibition of radio-labeled bradykinin binding)
Conditions: compound resynthesized in pure form, read-out: IC50, BK binding inhibition
Procedure: Bradykinin 2 and Bradykinin 1 Human Receptor Clone Binding Assays
Human bradykinin B2 receptor was expressed in CHO-K1 (ATCC) cells. Preparation of membranes for binding assay was carried out by scraping cells from roller bottles in ice cold PBS and centrifuging at 1000× g, at 4° C. for 15 minutes. The supernatant was discarded and pellet resuspended in Buffer A consisting of 25 mM TES (pH 6.8) with 2 uM 1,10-phenanthroline, and centrifuged at 27,000× g for 15 min. The pellet was washed once using the same buffer and centrifugation parameters. The final pellet was resuspended in Buffer B (Buffer A with 2 uM captopril, 140 ug/ml bacitracin, 0.1% BSA), and stored in 1 ml aliquot, frozen at -70° C. until needed.
B2 Binding assays were performed by incubating human clone membrane solution with ^3 H-bradykinin (final concentration 0.3 nM) with or without test compounds in assay buffer (Buffer B with 1 mM dithiothreitol), at room temperature, for 45 minutes, at a final volume of 315 ul. All test compound dilutions were done in triplicate. Assays were harvested by quick filtration in a Tomtec Harvester 96, with ice-cold wash buffer consisting of 10 mM Tris/HCl, pH 7.5, 100 mM NaCl,0.02% BSA, onto Wallec printed glassfiber Filtermat "B", which had been pre-soaked with 0.1% PEI and previously air-dried. Filtermats were counted in 9.5 ml Wallec Beta-Plate Scint, in Wallec 1450 MicroBeta Counter.

SMILES	IC50 [µM]
N=C(N)NCCCCCCN1CC(=O)N(Cc2ccc3ccccc3c2)C(C2Cc3ccccc3C2)C1=O (racemic) [Example 60]	4.1
N=C(N)NCCCCCCCN1CC(=O)N(Cc2ccc(-c3ccccc3)cc2)C(C2Cc3ccccc3C2)C1=O (racemic) [Example 61]	13
